{
  "source": "paper PMC12210654",
  "about": "“Palazestrant, a novel oral Complete Estrogen Receptor Antagonist (CERAN) and Selective Estrogen Receptor Degrader (SERD), in patients with ER+/HER2− advanced or metastatic breast cancer: phase 1/2 study results” (Breast Cancer Research : BCR, 2025)",
  "experiment": "Safety: adverse events (NCI CTCAE v5.0), electrocardiograms",
  "format": "in vivo, human",
  "details": "for TEAE Neutropenia, Any grade / TEAE Neutropenia, Grade 3 / TEAE Neutropenia, Grade 4 / TRAE Neutropenia, Any grade / TRAE Neutropenia, Grade 3 / TRAE Neutropenia, Grade 4: includes neutropenia, neutrophil count decreased, febrile neutropenia",
  "description": "Safety assessments included the monitoring of AEs, clinical laboratory parameters, electrocardiograms, and vital signs. AE severity was graded according to the National Cancer Institute Common Terminology Criteria for Adverse Events (version 5.0).\nAll DLT analyses (phase 1a) were performed in patients enrolled in the study during cycle 1 and who either received 75% of the planned palazestrant doses or experienced a DLT during cycle 1. All PK analyses were performed in patients who received at least 1 dose of palazestrant and had adequate postbaseline PK samples for characterization of PK parameters. All safety analyses were performed and PFS assessed in patients who received at least 1 dose of palazestrant. Clinical response (CR or PR) was assessed in patients who received at least 1 cycle of palazestrant, had measurable disease at baseline, and had at least 1 postbaseline tumor assessment. CBR was assessed in patients who received at least 1 cycle of palazestrant, had at least 1 postbaseline tumor assessment, and started their first dose at least 24 weeks before data cutoff. Patients who discontinued study treatment without radiographic progression within 24 weeks from the first dose were not included in the CBR analysis. PK parameters were estimated using conventional noncompartmental methods. For CBR, estimates were accompanied by 2-sided 95% confidence intervals (95% CIs). For PFS, Kaplan–Meier analyses were used to determine medians, event-free rates, and 95% CIs. For all other outcomes, categorical data were analyzed using frequencies and percentages, and continuous data were analyzed using means (standard deviation) or medians (range), as appropriate.",
  "data": [
    {"smiles": "CCCN1CC(Oc2ccc([C@@H]3c4[nH]c5ccccc5c4C[C@@H](C)N3CC(C)(C)F)cc2)C1", "note": "[palazestrant, Palazestrant]", "values": [
      {"measurement": "TEAE Constipation, Any grade", "setting": "60 mg (n = 30)", "result": "6 (20.0) n (%)"},
      {"measurement": "TEAE Constipation, Grade 3", "setting": "60 mg (n = 30)", "result": "0 n (%)"},
      {"measurement": "TEAE Constipation, Grade 4", "setting": "60 mg (n = 30)", "result": "0 n (%)"},
      {"measurement": "TEAE Diarrhea, Any grade", "setting": "60 mg (n = 30)", "result": "6 (20.0) n (%)"},
      {"measurement": "TEAE Diarrhea, Grade 3", "setting": "60 mg (n = 30)", "result": "1 (3.3) n (%)"},
      {"measurement": "TEAE Diarrhea, Grade 4", "setting": "60 mg (n = 30)", "result": "0 n (%)"},
      {"measurement": "TEAE Fatigue, Any grade", "setting": "60 mg (n = 30)", "result": "13 (43.3) n (%)"},
      {"measurement": "TEAE Fatigue, Grade 3", "setting": "60 mg (n = 30)", "result": "0 n (%)"},
      {"measurement": "TEAE Fatigue, Grade 4", "setting": "60 mg (n = 30)", "result": "0 n (%)"},
      {"measurement": "TEAE Headache, Any grade", "setting": "60 mg (n = 30)", "result": "7 (23.3) n (%)"},
      {"measurement": "TEAE Headache, Grade 3", "setting": "60 mg (n = 30)", "result": "0 n (%)"},
      {"measurement": "TEAE Headache, Grade 4", "setting": "60 mg (n = 30)", "result": "0 n (%)"},
      {"measurement": "TEAE Nausea, Any grade", "setting": "60 mg (n = 30)", "result": "14 (46.7) n (%)"},
      {"measurement": "TEAE Nausea, Grade 3", "setting": "60 mg (n = 30)", "result": "0 n (%)"},
      {"measurement": "TEAE Nausea, Grade 4", "setting": "60 mg (n = 30)", "result": "0 n (%)"},
      {"measurement": "TEAE Vomiting, Any grade", "setting": "60 mg (n = 30)", "result": "5 (16.7) n (%)"},
      {"measurement": "TEAE Vomiting, Grade 3", "setting": "60 mg (n = 30)", "result": "0 n (%)"},
      {"measurement": "TEAE Vomiting, Grade 4", "setting": "60 mg (n = 30)", "result": "0 n (%)"},
      {"measurement": "TRAE Fatigue, Any grade", "setting": "60 mg (n = 30)", "result": "9 (30.0) n (%)"},
      {"measurement": "TRAE Fatigue, Grade 3", "setting": "60 mg (n = 30)", "result": "0 n (%)"},
      {"measurement": "TRAE Fatigue, Grade 4", "setting": "60 mg (n = 30)", "result": "0 n (%)"},
      {"measurement": "TRAE Headache, Any grade", "setting": "60 mg (n = 30)", "result": "3 (10.0) n (%)"},
      {"measurement": "TRAE Headache, Grade 3", "setting": "60 mg (n = 30)", "result": "0 n (%)"},
      {"measurement": "TRAE Headache, Grade 4", "setting": "60 mg (n = 30)", "result": "0 n (%)"},
      {"measurement": "TRAE Nausea, Any grade", "setting": "60 mg (n = 30)", "result": "10 (33.3) n (%)"},
      {"measurement": "TRAE Nausea, Grade 3", "setting": "60 mg (n = 30)", "result": "0 n (%)"},
      {"measurement": "TRAE Nausea, Grade 4", "setting": "60 mg (n = 30)", "result": "0 n (%)"},
      {"measurement": "TRAE Vomiting, Any grade", "setting": "60 mg (n = 30)", "result": "3 (10.0) n (%)"},
      {"measurement": "TRAE Vomiting, Grade 3", "setting": "60 mg (n = 30)", "result": "0 n (%)"},
      {"measurement": "TRAE Vomiting, Grade 4", "setting": "60 mg (n = 30)", "result": "0 n (%)"},
      {"measurement": "TEAE Neutropenia, Any grade", "setting": "60 mg (n = 30)", "result": "2 (6.7) n (%)"},
      {"measurement": "TEAE Neutropenia, Grade 3", "setting": "60 mg (n = 30)", "result": "0 n (%)"},
      {"measurement": "TEAE Neutropenia, Grade 4", "setting": "60 mg (n = 30)", "result": "0 n (%)"},
      {"measurement": "TRAE Neutropenia, Any grade", "setting": "60 mg (n = 30)", "result": "0 n (%)"},
      {"measurement": "TRAE Neutropenia, Grade 3", "setting": "60 mg (n = 30)", "result": "0 n (%)"},
      {"measurement": "TRAE Neutropenia, Grade 4", "setting": "60 mg (n = 30)", "result": "0 n (%)"},
      {"measurement": "TEAE Constipation, Any grade", "setting": "120 mg (n = 86)", "result": "15 (17.4) n (%)"},
      {"measurement": "TEAE Constipation, Grade 3", "setting": "120 mg (n = 86)", "result": "0 n (%)"},
      {"measurement": "TEAE Constipation, Grade 4", "setting": "120 mg (n = 86)", "result": "0 n (%)"},
      {"measurement": "TEAE Diarrhea, Any grade", "setting": "120 mg (n = 86)", "result": "12 (14.0) n (%)"},
      {"measurement": "TEAE Diarrhea, Grade 3", "setting": "120 mg (n = 86)", "result": "0 n (%)"},
      {"measurement": "TEAE Diarrhea, Grade 4", "setting": "120 mg (n = 86)", "result": "0 n (%)"},
      {"measurement": "TEAE Fatigue, Any grade", "setting": "120 mg (n = 86)", "result": "22 (25.6) n (%)"},
      {"measurement": "TEAE Fatigue, Grade 3", "setting": "120 mg (n = 86)", "result": "3 (3.5) n (%)"},
      {"measurement": "TEAE Fatigue, Grade 4", "setting": "120 mg (n = 86)", "result": "0 n (%)"},
      {"measurement": "TEAE Headache, Any grade", "setting": "120 mg (n = 86)", "result": "17 (19.8) n (%)"},
      {"measurement": "TEAE Headache, Grade 3", "setting": "120 mg (n = 86)", "result": "0 n (%)"},
      {"measurement": "TEAE Headache, Grade 4", "setting": "120 mg (n = 86)", "result": "0 n (%)"},
      {"measurement": "TEAE Nausea, Any grade", "setting": "120 mg (n = 86)", "result": "54 (62.8) n (%)"},
      {"measurement": "TEAE Nausea, Grade 3", "setting": "120 mg (n = 86)", "result": "3 (3.5) n (%)"},
      {"measurement": "TEAE Nausea, Grade 4", "setting": "120 mg (n = 86)", "result": "0 n (%)"},
      {"measurement": "TEAE Vomiting, Any grade", "setting": "120 mg (n = 86)", "result": "25 (29.1) n (%)"},
      {"measurement": "TEAE Vomiting, Grade 3", "setting": "120 mg (n = 86)", "result": "4 (4.7) n (%)"},
      {"measurement": "TEAE Vomiting, Grade 4", "setting": "120 mg (n = 86)", "result": "0 n (%)"},
      {"measurement": "TRAE Fatigue, Any grade", "setting": "120 mg (n = 86)", "result": "17 (19.8) n (%)"},
      {"measurement": "TRAE Fatigue, Grade 3", "setting": "120 mg (n = 86)", "result": "2 (2.3) n (%)"},
      {"measurement": "TRAE Fatigue, Grade 4", "setting": "120 mg (n = 86)", "result": "0 n (%)"},
      {"measurement": "TRAE Headache, Any grade", "setting": "120 mg (n = 86)", "result": "13 (15.1) n (%)"},
      {"measurement": "TRAE Headache, Grade 3", "setting": "120 mg (n = 86)", "result": "0 n (%)"},
      {"measurement": "TRAE Headache, Grade 4", "setting": "120 mg (n = 86)", "result": "0 n (%)"},
      {"measurement": "TRAE Nausea, Any grade", "setting": "120 mg (n = 86)", "result": "47 (54.7) n (%)"},
      {"measurement": "TRAE Nausea, Grade 3", "setting": "120 mg (n = 86)", "result": "3 (3.5) n (%)"},
      {"measurement": "TRAE Nausea, Grade 4", "setting": "120 mg (n = 86)", "result": "0 n (%)"},
      {"measurement": "TRAE Vomiting, Any grade", "setting": "120 mg (n = 86)", "result": "21 (24.4) n (%)"},
      {"measurement": "TRAE Vomiting, Grade 3", "setting": "120 mg (n = 86)", "result": "2 (2.3) n (%)"},
      {"measurement": "TRAE Vomiting, Grade 4", "setting": "120 mg (n = 86)", "result": "0 n (%)"},
      {"measurement": "TEAE Neutropenia, Any grade", "setting": "120 mg (n = 86)", "result": "21 (24.4) n (%)"},
      {"measurement": "TEAE Neutropenia, Grade 3", "setting": "120 mg (n = 86)", "result": "3 (3.5) n (%)"},
      {"measurement": "TEAE Neutropenia, Grade 4", "setting": "120 mg (n = 86)", "result": "6 (7.0) n (%)"},
      {"measurement": "TRAE Neutropenia, Any grade", "setting": "120 mg (n = 86)", "result": "18 (20.9) n (%)"},
      {"measurement": "TRAE Neutropenia, Grade 3", "setting": "120 mg (n = 86)", "result": "3 (3.5) n (%)"},
      {"measurement": "TRAE Neutropenia, Grade 4", "setting": "120 mg (n = 86)", "result": "5 (5.8) n (%)"},
      {"measurement": "grade 4 neutropenia resolved with dose interruption followed by dose reduction, treatment continued with no further neutropenia", "setting": "120 mg/day", "result": 3, "unit": "patients"},
      {"measurement": "Grade 3 TEAE fatigue", "setting": "120 mg/day (n = 86)", "result": 3.5, "unit": "%"},
      {"measurement": "Grade 3 TEAE nausea", "setting": "120 mg/day (n = 86)", "result": 3.5, "unit": "%"},
      {"measurement": "Grade 3 TEAE neutropenia", "setting": "120 mg/day (n = 86)", "result": 3.5, "unit": "%"},
      {"measurement": "Grade 3 TEAE vomiting", "setting": "120 mg/day (n = 86)", "result": 4.7, "unit": "%"},
      {"measurement": "TEAE fatigue, any grade", "setting": "120 mg/day (n = 86)", "result": 25.6, "unit": "%"},
      {"measurement": "TEAE nausea, any grade", "setting": "120 mg/day (n = 86)", "result": 62.8, "unit": "%"},
      {"measurement": "TEAE vomiting, any grade", "setting": "120 mg/day (n = 86)", "result": 29.1, "unit": "%"},
      {"measurement": "TRAE fatigue, any grade", "setting": "120 mg/day (n = 86)", "result": 19.8, "unit": "%"},
      {"measurement": "TRAE headache, any grade", "setting": "120 mg/day (n = 86)", "result": 15.1, "unit": "%"}
    ]}
  ]
}
